# Measurements: ChEMBL document CHEMBL4368866, “Discovery of a 3,4,5-trisubstituted-1,2,4-triazole agonist with high affinity and selectivity at the somatostatin subtype-4 (sst4) receptor” (Medchemcomm, 2018)
# Columns and labels:
# [1] = target: T1, Somatostatin receptor type 4 (Homo sapiens, UniProt P31391); test: Displacement of [125I]-Tyr-SRIF from recombinant human SST4 receptor expressed in CHOK1 cell membranes after 90 mins by gamma counting method
# [2] = target: T2, Somatostatin receptor type 2 (Homo sapiens, UniProt P30874); test: Displacement of [125I]-Tyr-SRIF from recombinant human SST2A receptor expressed in CHOK1 cell membranes after 90 mins by gamma counting method
# [3] = target: T1, Somatostatin receptor type 4; test: Displacement of 3-[125I]iodotyrosyl25-somatostatin-28 from recombinant human SST4 receptor expressed in CHOK1 cell membranes after 45 mins by scintillation counting method
# [4] = target: T2, Somatostatin receptor type 2; test: Displacement of 3-[125I]iodotyrosyl25-somatostatin-28 from recombinant human SST2 receptor expressed in CHOK1 cell membranes after 45 mins by scintillation counting method
# [5] = target: T2, Somatostatin receptor type 2; test: Displacement of [125I]-LTT-SRIF-28 from recombinant human SST2 receptor expressed in CHO cell membranes after 60 mins by scintillation counting method
# [6] = target: T1, Somatostatin receptor type 4; test: Agonist activity at recombinant human SST4 receptor expressed in CHOK1 cell membranes assessed as inhibition of forskolin-stimulated cAMP accumulation measured after 2.5 to 20 hrs by TR-FRET assay; type: functional, cell-based
# [7] = organism: Homo sapiens; test: Selectivity ratio of Ki for displacement of [125I]-Tyr-SRIF from SST1 receptor (unknown origin) to Ki for displacement of [125I]-Tyr-SRIF from recombinant human SST4 receptor expressed in CHOK1 cell membranes
# [8] = organism: Homo sapiens; test: Selectivity ratio of Ki for displacement of [125I]-Tyr-SRIF from SST3 receptor (unknown origin) to Ki for displacement of [125I]-Tyr-SRIF from recombinant human SST4 receptor expressed in CHOK1 cell membranes
# [9] = organism: Homo sapiens; test: Selectivity ratio of Ki for displacement of [125I]-Tyr-SRIF from recombinant human SST2A receptor expressed in CHOK1 cell membranes to Ki for displacement of [125I]-Tyr-SRIF from recombinant human SST4 receptor expressed in CHOK1 cell membranes
# [10] = target: Somatostatin receptor type 1 (Homo sapiens, UniProt P30872); test: Displacement of [125I]-Tyr-SRIF from SST1 receptor (unknown origin) after 90 mins by gamma counting method
# [11] = target: Somatostatin receptor type 3 (Homo sapiens, UniProt P32745); test: Displacement of [125I]-Tyr-SRIF from SST3 receptor (unknown origin) after 90 mins by gamma counting method
# [12] = organism: Homo sapiens; test: Selectivity ratio of Ki for displacement of [125I]-Tyr-SRIF from SST5 receptor (unknown origin) to Ki for displacement of [125I]-Tyr-SRIF from recombinant human SST4 receptor expressed in CHOK1 cell membranes
# [13] = target: Somatostatin receptor type 5 (Homo sapiens, UniProt P35346); test: Displacement of [125I]-Tyr-SRIF from SST5 receptor (unknown origin) after 90 mins by gamma counting method
# Sequence of Somatostatin receptor type 5 (P35346 whole entry): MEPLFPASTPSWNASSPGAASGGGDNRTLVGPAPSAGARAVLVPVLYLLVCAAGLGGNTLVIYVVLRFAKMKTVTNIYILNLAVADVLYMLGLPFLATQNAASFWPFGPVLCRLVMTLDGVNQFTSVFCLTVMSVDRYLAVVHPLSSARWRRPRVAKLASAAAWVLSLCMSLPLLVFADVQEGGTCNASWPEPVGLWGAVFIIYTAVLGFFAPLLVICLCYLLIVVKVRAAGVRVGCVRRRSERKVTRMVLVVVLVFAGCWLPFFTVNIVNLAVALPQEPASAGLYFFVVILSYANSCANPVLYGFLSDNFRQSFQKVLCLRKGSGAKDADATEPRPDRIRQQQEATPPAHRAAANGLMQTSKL
# T2 sequence (P30874 whole entry): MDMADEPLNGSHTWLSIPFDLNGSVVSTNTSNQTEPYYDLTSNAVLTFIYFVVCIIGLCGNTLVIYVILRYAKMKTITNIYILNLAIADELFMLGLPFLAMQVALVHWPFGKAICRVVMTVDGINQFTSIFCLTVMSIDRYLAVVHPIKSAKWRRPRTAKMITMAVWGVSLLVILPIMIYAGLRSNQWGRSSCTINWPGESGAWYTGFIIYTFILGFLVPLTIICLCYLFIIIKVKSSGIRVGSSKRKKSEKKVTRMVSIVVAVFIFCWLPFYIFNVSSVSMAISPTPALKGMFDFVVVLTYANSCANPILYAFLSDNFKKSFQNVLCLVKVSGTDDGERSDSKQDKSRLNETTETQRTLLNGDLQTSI
# T1 sequence (P31391 whole entry): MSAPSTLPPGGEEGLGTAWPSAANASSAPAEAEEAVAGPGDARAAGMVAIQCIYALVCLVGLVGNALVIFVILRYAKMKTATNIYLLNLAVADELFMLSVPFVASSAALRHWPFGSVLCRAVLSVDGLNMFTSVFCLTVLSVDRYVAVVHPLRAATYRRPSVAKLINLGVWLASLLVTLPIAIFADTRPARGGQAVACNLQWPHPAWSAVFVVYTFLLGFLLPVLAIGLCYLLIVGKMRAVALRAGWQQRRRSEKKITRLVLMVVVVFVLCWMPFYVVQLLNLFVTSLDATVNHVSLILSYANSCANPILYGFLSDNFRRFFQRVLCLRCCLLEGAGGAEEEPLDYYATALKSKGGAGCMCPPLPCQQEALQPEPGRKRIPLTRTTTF
# Sequence of Somatostatin receptor type 1 (P30872 whole entry): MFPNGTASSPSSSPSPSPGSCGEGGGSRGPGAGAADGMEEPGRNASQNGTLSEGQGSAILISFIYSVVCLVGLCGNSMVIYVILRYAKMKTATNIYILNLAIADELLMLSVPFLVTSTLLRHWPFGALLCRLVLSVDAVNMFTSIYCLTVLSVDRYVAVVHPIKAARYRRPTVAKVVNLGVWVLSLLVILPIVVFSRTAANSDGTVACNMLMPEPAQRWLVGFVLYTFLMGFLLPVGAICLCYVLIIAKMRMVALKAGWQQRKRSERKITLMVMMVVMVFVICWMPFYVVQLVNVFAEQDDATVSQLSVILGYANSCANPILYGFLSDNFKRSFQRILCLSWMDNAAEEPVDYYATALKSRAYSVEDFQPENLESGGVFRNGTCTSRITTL
# Sequence of Somatostatin receptor type 3 (P32745 whole entry): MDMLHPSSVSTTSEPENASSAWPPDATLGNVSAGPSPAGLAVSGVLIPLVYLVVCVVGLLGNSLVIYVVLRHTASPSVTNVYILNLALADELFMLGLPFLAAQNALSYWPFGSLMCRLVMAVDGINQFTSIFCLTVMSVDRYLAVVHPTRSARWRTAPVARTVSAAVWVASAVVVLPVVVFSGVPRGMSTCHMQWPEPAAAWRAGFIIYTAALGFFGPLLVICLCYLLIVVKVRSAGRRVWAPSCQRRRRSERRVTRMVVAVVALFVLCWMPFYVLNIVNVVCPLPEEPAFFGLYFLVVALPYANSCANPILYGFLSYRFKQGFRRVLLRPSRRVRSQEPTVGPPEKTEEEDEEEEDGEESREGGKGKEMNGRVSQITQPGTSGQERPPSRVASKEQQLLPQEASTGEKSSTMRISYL
Ki [1] [µM],Ki [2] [µM],Compound,further results
< 10,> 10,NCCCc1nnc(CCc2c[nH]c3ccccc23)n1Cc1ccccc1,–
> 10,–,NCCCc1nnc(Cc2ccc(Cl)c(Cl)c2)n1CCc1c[nH]c2ccccc12,–
> 10,> 10,NCCCc1nnc(CCc2c[nH]c3ccccc23)n1Cc1ccc(Cl)c(Cl)c1,–
2.03,> 10,c1ccc(CCn2c(CCc3c[nH]cn3)nnc2CCc2c[nH]c3ccccc23)cc1,–
2.38,> 10,NCCCn1c(CCc2c[nH]c3ccccc23)nnc1Cc1ccc(Cl)c(Cl)c1,–
> 10,–,NCCCc1nnc(Cc2c[nH]c3ccccc23)n1Cc1ccccc1,–
0.019,> 10,Clc1ccc(Cc2nnc(CCc3c[nH]c4ccccc34)n2CCCc2c[nH]cn2)cc1Cl,EC50 [6]: 0.0068 µM; Ratio Ki [7]: 250; Ratio Ki [8]: 350; Ratio Ki [9]: > 500; Ki [10]: 4.75 µM; Ki [11]: 6.63 µM; Ratio Ki [12]: > 500; Ki [13]: > 10 µM
> 10,–,c1ccc(Cn2c(CCc3c[nH]cn3)nnc2Cc2c[nH]c3ccccc23)cc1,–
> 10,> 10,NCCCc1nnc(Cc2c[nH]c3ccccc23)n1Cc1ccc(Cl)c(Cl)c1,–

# The next lines start with the molecule.
Compound,Ki [1] [µM],Ki [2] [µM],further results
Clc1ccc(Cc2nnc(C3CCNCC3)n2CCc2c[nH]c3ccccc23)cc1Cl,> 10,–,–
COC(=O)[C@H](CCCN=C(N)N)NC(=O)CCCc1c(-c2ccccc2)[nH]c2c(F)cc(F)cc12,–,–,Ki [3]: 0.0007 µM; Ki [4]: 4.72 µM
Cc1ccc(S(=O)(=O)N[C@@H](CCN)C(=O)N[C@@H](Cc2ccccc2)C(N)=O)c2ccccc12,–,–,Ki [5]: > 5 µM
Clc1ccc(Cn2c(CCc3c[nH]c4ccccc34)nnc2C2CCNCC2)cc1Cl,> 10,> 10,–
Clc1ccc(Cn2c(CCc3c[nH]cn3)nnc2CCc2c[nH]c3ccccc23)cc1Cl,1.43,> 10,–
c1ccc(Cn2c(CCc3c[nH]cn3)nnc2CCc2c[nH]c3ccccc23)cc1,4.47,–,–
Clc1ccc(Cc2nnc(CCc3c[nH]cn3)n2CCc2c[nH]c3ccccc23)cc1Cl,4.8,> 10,–
Clc1ccc(Cn2c(Cc3c[nH]c4ccccc34)nnc2C2CCNCC2)cc1Cl,> 10,–,–
Clc1ccc(Cn2c(CCc3c[nH]cn3)nnc2Cc2c[nH]c3ccccc23)cc1Cl,> 10,> 10,–
c1ccc(Cn2c(CCc3c[nH]c4ccccc34)nnc2C2CCNCC2)cc1,> 10,> 10,–
c1ccc(Cn2c(Cc3c[nH]c4ccccc34)nnc2C2CCNCC2)cc1,> 10,> 10,–
